{"source": "paper PMC12140054", "about": "“Small glycomimetic antagonists of the cytomegalovirus glycoprotein UL141 prevent binding to TRAIL death receptor” (The Journal of Biological Chemistry, 2025)", "tested_on": "human foreskin fibroblasts HFF-BJ (ATCC CRL-2522 cells)", "test": "MTT cytotoxicity / cell viability assay", "format": "cell-based", "conditions": "0.1 to 50 μM, 72 h", "text": "Cell viability as visualized by fold change of formazan-positive cells normalized to the untreated control and DMSO. Viability reduced below 40% represents the cytotoxic zone, below the dotted line in each plot. The number of biological replicates is indicated.\nHuman foreskin fibroblasts (HFF), a type of primary fibroblast derived from neonatal foreskin tissue, were chosen for this bioassay due to their distinct advantages in studies involving HCMV. For instance, the HHF cells provide a relevant and effective platform due to their unique susceptibility to HCMV infection, ability to mimic human immune responses, and relevance to clinical scenarios. […] HFF cells were incubated with each compound at concentrations ranging from 0.1 to 50 μM and any possible cytotoxic effect was monitored for 72 h. Tested compounds were dissolved in dimethyl sulfoxide (DMSO). […] The cytotoxic effect (CTE) is represented here as the concentration that causes a reduction of more than 40% in the number of viable cells.\nCells were seeded in a 96-well plate at a density of 1 × 10^4 cells per well for the measurement of cytotoxicity of the compounds (without UVA irradiation). […] Cells after treatment were incubated for […]. Untreated cells were considered negative control, and DMSO-treated cells (at appropriate concentration) were considered vehicle control. The classical MTT assay (3-(4,5-dimethyl thiazolyl-2)-2,5-diphenyltetrazolium bromide) ([68]) was used to measure cellular metabolic activity as an indicator of cell viability, proliferation, and cytotoxicity. Briefly, 0.5 mg/ml MTT solution was dispensed in each well of the 96-well plate and incubated for 4 h. Afterward, the MTT solution was removed and 200 μl of 100% DMSO was added to each well and the plate was placed on a microplate shaker for 5 min to dissolve the formazan granules. The absorbance was measured at 550 nm using a spectrophotometer. DMSO and MTT were purchased from Thermo Fisher Scientific. The darker the solution, the greater the number of viable, metabolically active cells. All experimental compounds were measured using at least 2 to 3 replicates for each and the averaged values from three independent experiments (n = 3) are presented. Cell viability was visualized by fold change of formazan-positive cells normalized to the untreated control and DMSO. Viability reduced below 40% represents the cytotoxic zone. All evaluations were performed using GraphPad Prism 9.5.0 (GraphPad Software, LLC), if other software was not explicitly mentioned."}
{"compound": "CCC1C(O)C(O)CN1Cc1ccc(I)cc1", "note": "(stereo not shown) [Compound 18]", "values": [{"measurement": "cytotoxicity (in words)", "value": "no cytotoxicity was detected"}]}
